{"source": "patent US20030180285A1", "about": "“Treatment of fungal infections with polyene or beta glucan synthase inhibitor anti-fungals combined with anti hsp90 antibodies” (priority 2000, published 2003)", "molecules": {"B1": {"name": "antibody: antibody of SEQ ID NO: 2 (heavy, light and spacer domains) recognising Candida albicans hsp90 epitope SEQ ID NO: 1, expressed in E. coli (protein)", "scFv": "HMAEVQLVESGAEVKKPGESLRISCKGSGCIISSYWISWVRQMPGKGLEWMGKIDPGDSYINYSPSFQGHVTISADKSINTAYLQWNSLKASDTAMYYCARGGRDFGDSFDYWGQGTLVTVSSGGGGSGGGGSGGGGSDVVMTQSPSFLSAFVGDRITITCRASSGISRYLAWYQQAPGKAPKLLIYAASTLQTGVPSRFSGSGSGTEFTLTINSLQPEDFATYYCQHLNSYPLTFGGGTKVDIKRAA"}}, "key": {"[1]": {"system": "Aspergillus flavus", "experiment": "Aspergillus studies, MIC in microtitre plates", "format": "cell-based", "conditions": "formulation buffer only, read-out: MIC to Amphotericin B", "procedure": "(§7) Isolates of Aspergillus fumigatus, Aspergillus flavus and Aspergillus niger were prepared in RPMI 1640 medium. The suspensions were prepared to give a final inoculum of 2×10^4 conidia per ml and these were dispensed in 100 μl aliquots into flat-bottomed microtitre plates. A double dilution series of Amphotericin B ranging from 250 μg/nil to 0.75 μg/ml was prepared and dispensed to the appropriate wells. Mycograb was added to each of the wells at a final concentration of 100 μg/ml in formulation buffer. A control series was also prepared for each isolate which contained formulation buffer only."}, "[2]": {"system": "C. krusei (FA/157)", "experiment": "Broth microdilution test (MIC, colony counts)", "format": "cell-based", "conditions": "for MIC: Pichia kudriavzevii; for MIC / Colony counts: no antibody", "method": "(§1) Non-Aspergillus yeast strains used (Table 1) were plated onto Sabouraud's dextrose agar (Oxoid, Basingstoke, UK) and incubated at 37° C. for 24 hours. The strains were identified with the API 20C system (BioMerieux, Marcy L'Etoile, France). If needed, microscopical examinations of morphology on cornmeal agar (Oxoid) was used to confirm the identity.\n(§2) For non-Aspergillus strains, suspensions were prepared from individual colonies (diameter≧1 mm) in 5 ml of sterile 0.85% saline to a density of […] as established by counting on a haemocytometer grid. For Aspergillus strains, see below.\n(§3) RPMI broth was prepared from RPMI 1640 broth medium (Sigma R7880) supplemented with 0.3 g of glutamine per litre, buffered with 34.6 g of morpholine propanesulfonic acid (MOPS) per litre and adjusted to ph 7.0.\n(§4) Twofold dilutions ([…] for amphotericin B and 400 to 0.4 mg/ml for fluconazole) were prepared in RPMI broth starting from the two stock solutions. A 100 μl suspension of the inoculum diluted 1 in 10 (equivalent to 1×10^3 cfu) was added to the microtiter plates. To this was added 50 μl of the antifungal and then 50 μl of the antibody. Antibody was either neat (0.4 mg/mil), or diluted to 1/10or 1/100. When antibody was absent, the 50 μl volume was made up by RPMI. The total volume in each well was 200 μl. Final concentrations of antibody in the experiments were: 100 μg/ml (“neat”), 10 μg/ml (“ 1/10antibody”) or 1 μg/ml (“ 1/100antibody”).\n(§5) Plates were incubated at 37° C. overnight and the minimum inhibitory concentration (MIC) defined by the lower concentration inhibiting growth.\n(§6) Colony counts were determined for the wells where there was a visual reduction in yeast growth. Results were represented as colony forming units per ml of broth (cfu/ml)."}, "[3]": {"system": "Candida albicans (outbreak)", "experiment": "Broth microdilution test (MIC, colony counts)", "format": "cell-based", "method": "as §1, §2, §3, §4, §5, §6"}, "[4]": {"system": "C. tropicalis (NCPF #3111)", "experiment": "Broth microdilution test (MIC, colony counts)", "format": "cell-based", "conditions": "for MIC: Candida tropicalis, NCPF3111, no antibody", "method": "as §1, §2, §3, §4, §5, §6"}, "[5]": {"system": "Torulopsis glabrata (NCPF #3240)", "experiment": "Broth microdilution test (MIC, colony counts)", "format": "cell-based", "conditions": "T. glabrata; for MIC: Nakaseomyces glabratus, NCPF3240", "method": "as §1, §2, §3, §4, §5, §6"}, "[6]": {"system": "C. parapsilosis (NCPF #3104)", "experiment": "Broth microdilution test (MIC, colony counts)", "format": "cell-based", "conditions": "for MIC: Lodderomyces parapsilosis, NCPF3104, no antibody; for Colony counts: no antibody", "method": "as §1, §2, §3, §4, §5, §6"}, "[7]": {"system": "C. albicans (Fluconazole resistant)", "experiment": "Broth microdilution test (MIC, colony counts)", "format": "cell-based, Candida albicans", "method": "as §1, §2, §3\nTwofold dilutions ([…] for amphotericin B and 400 to 0.4 mg/ml for fluconazole) were prepared in RPMI broth starting from the two stock solutions. A 100 μl suspension of the inoculum diluted 1 in 10 (equivalent to 1×10^3 cfu) was added to the microtiter plates. To this was added 50 μl of the antifungal and then 50 μl of the antibody. Antibody was either neat (0.4 mg/mil), or diluted to 1/10or 1/100. When antibody was absent, the 50 μl volume was made up by RPMI. […]\nColony counts were determined for the wells where there was a visual reduction in yeast growth. […]"}, "[8]": {"system": "Aspergillus fumigatus (NCPF #2109)", "experiment": "Aspergillus studies, MIC in microtitre plates", "format": "cell-based", "conditions": "NCPF2109, formulation buffer only, read-out: MIC to Amphotericin B", "procedure": "as §7"}, "[9]": {"system": "C. albicans outbreak strain", "experiment": "Animal synergy: yeast counts in tissues of infected mice", "format": "in vivo, CD1 mice", "conditions": "Group 1: amphotericin B 0.6 mg/kg only, 48 hours", "procedure": "Thirty CD1 mice (each weighing about 25 g) were injected with 100 μl of C. albicans outbreak strain (equivalent to 1.5×10^7 cfu) and after 2 hours the mice were split into three groups and injected with:\n(A) Group 1—100 μl solution of 10 mM ammonium acetate (AAT; pH 9), followed by 100 μl amphotericin B equivalent to 0.6 mg/kg in a 5% (w/v) glucose solution;\n(B) Group 2—100 μl solution of 10 mM AAT (pH 9) solution containing 500 μg anti-hsp90 antibody, followed by 100 μl amphotericin B equivalent to 0.6 mg/kg in a 5% (w/v) glucose solution; and\n(C) Group 3—100 μl solution of 10 mM AAT (pH 9) containing 50 μg anti-hsp90 antibody, followed by 100 μl amphotericin B equivalent to 0.6 mg/kg in a 5% (w/v) glucose solution.\nThe animals were culled after 48 hours and yeast counts on Sabouraud's plates of liver, spleen and kidney tissue performed."}, "[10]": {"system": "Aspergillus niger", "experiment": "Aspergillus studies, MIC in microtitre plates", "format": "cell-based", "conditions": "formulation buffer only, read-out: MIC to Amphotericin B", "procedure": "as §7"}, "[11]": {"conditions": "read-out: MIC to amphotericin B"}, "[12]": {"conditions": "antibody 0.313 μg/ml, no antifungal agent"}}, "note": "Read-outs that look alike come from different tables or passages of the source.", "data": [{"molecule": "C[C@@H]1[C@H](O)[C@@H](C)/C=C/C=C/C=C/C=C/C=C/C=C/C=C/[C@H](O[C@@H]2O[C@H](C)[C@@H](O)[C@H](N)[C@@H]2O)C[C@@H]2O[C@](O)(C[C@@H](O)C[C@@H](O)[C@H](O)CC[C@@H](O)C[C@@H](O)CC(=O)O[C@H]1C)C[C@H](O)[C@H]2C(=O)O", "note": "[Amphotericin B, amphotericin B]", "values": [{"measurement": "MIC", "setting": "[1]", "value": 2.5, "unit": "µg/mL"}, {"measurement": "MIC", "setting": "[2]; [11]", "value": 0.625, "unit": "µg/mL"}, {"measurement": "MIC", "setting": "[3]; Candida albicans, C. albicans (outbreak), no antibody, read-out: MIC to amphotericin B", "value": 0.156, "unit": "µg/mL"}, {"measurement": "MIC", "setting": "[4]; [11]", "value": 0.078, "unit": "µg/mL"}, {"measurement": "MIC", "setting": "[5]; no antibody, read-out: MIC to amphotericin B", "value": 0.039, "unit": "µg/mL"}, {"measurement": "Colony counts", "setting": "[5]; amphotericin B 0.009 μg/ml, no antibody", "value": "1.1 × 10^7 cfu/ml"}, {"measurement": "MIC", "setting": "[6]; [11]", "value": 0.625, "unit": "µg/mL"}, {"measurement": "Colony counts", "setting": "[6]; amphotericin B 0.313 μg/ml", "value": "3 × 10^6 cfu/ml"}, {"measurement": "Colony counts", "setting": "[6]; amphotericin B 0.626 μg/ml", "value": "6.3 × 10^3 cfu/ml"}, {"measurement": "MIC", "setting": "[7]; Candida albicans, C. albicans fluconazole resistant, no antibody, read-out: MIC to amphotericin B", "value": 0.312, "unit": "µg/mL"}, {"measurement": "MIC", "setting": "[8]", "value": 2.5, "unit": "µg/mL"}, {"measurement": "Colonies of C. albicans in tissue", "setting": "[9]; Kidney", "value": "6.80 ± 0.916 cfu/ml, in log10"}, {"measurement": "Colonies of C. albicans in tissue", "setting": "[9]; Liver", "value": "4.26 ± 1.42 cfu/ml, in log10"}, {"measurement": "Colonies of C. albicans in tissue", "setting": "[9]; Spleen", "value": "4.18 ± 1.18 cfu/ml, in log10"}, {"measurement": "MIC", "setting": "[10]", "value": 2.5, "unit": "µg/mL"}]}, {"molecule": "OC(Cn1cncn1)(Cn1cncn1)c1ccc(F)cc1F", "note": "[Fluconazole, fluconazole]", "values": [{"measurement": "MIC", "setting": "[2]; read-out: MIC to fluconazole", "value": 100, "unit": "µg/mL"}, {"measurement": "Colony counts", "setting": "[2]; fluconazole 25 μg/ml", "value": "3.2 × 10^7 cfu/ml"}, {"measurement": "Colony counts", "setting": "[2]; fluconazole 50 μg/ml", "value": "1.6 × 10^7 cfu/ml"}, {"measurement": "Colony counts", "setting": "[3]; C. albicans outbreak strain, fluconazole 0.09 μg/ml, no antibody", "value": "3.6 × 10^5 cfu/ml"}, {"measurement": "MIC", "setting": "[4]; read-out: MIC to fluconazole", "value": 3.12, "unit": "µg/mL"}, {"measurement": "Colony counts", "setting": "[4]; fluconazole 0.09 μg/ml, no antibody", "value": "5 × 10^5 cfu/ml"}, {"measurement": "MIC", "setting": "[5]; no antibody, read-out: MIC to fluconazole", "value": 1.56, "unit": "µg/mL"}, {"measurement": "MIC", "setting": "[6]; read-out: MIC to fluconazole", "value": 6.25, "unit": "µg/mL"}, {"measurement": "Colony counts", "setting": "[6]; fluconazole 3.13 μg/ml", "value": "2.6 × 10^6 cfu/ml"}]}, {"molecule": "B1", "values": [{"measurement": "Effect of antibody on its own against yeast growth", "setting": "[2]; [12]", "value": "1.6 × 10^6 cfu/ml"}, {"measurement": "Effect of antibody on its own against yeast growth", "setting": "[3]; C. albicans (outbreak), antibody 0.313 μg/ml, no antifungal agent", "value": "5.6 × 10^6 cfu/ml"}, {"measurement": "Effect of antibody on its own against yeast growth", "setting": "[4]; [12]", "value": "6.0 × 10^5 cfu/ml"}, {"measurement": "Effect of antibody on its own against yeast growth", "setting": "[5]; [12]", "value": "1.2 × 10^7 cfu/ml"}, {"measurement": "Effect of antibody on its own against yeast growth", "setting": "[6]; [12]", "value": "2.6 × 10^4 cfu/ml"}, {"measurement": "Effect of antibody on its own against yeast growth", "setting": "[7]; C. albicans (fluconazole resistant), antibody 0.313 μg/ml, no antifungal agent", "value": "6 × 10^6 cfu/ml"}]}]}
